From patent US20190092720A1, “FUNCTIONALIZED BENZAMIDE DERIVATIVES AS ANTIVIRAL AGENTS AGAINST HBV INFECTION” (BARUCH S. BLUMBERG INSTITUTE, priority 2012, published 2019)
Where two headings read alike, the source gives them in different places.

Experiments:
[1] = tested on: HBV capsids; experiment: Particle gel assay of nucleocapsids in AML12HBV10 cells; assay type: cell-based, Hepatitis B virus (HBV); details: 2 days, FIG. 1 panel B
Protocol: (§1) FIG. 1. Antiviral mechanism of the compounds of the present invention. AML12HBV10 cells were left untreated (NT) or treated with the indicated concentrations of the compounds of the disclosure Compound 6 and Compound 19, respectively, for 2 days. Bay-4109 (3 µM) or AT-61 (25 µM) served as positive controls. (A) Intracellular viral RNA was determined by Northern blot hybridization. Ribosomal RNA served as a loading control. (B) The total amounts of nucleocapsids were determined by a particle gel assay. (C) Encapsidated pgRNA were extracted and measured by Northern blot. (D) Nucleocapsid-associated HBV DNA was quantified by alkaline-treatment of nucleocapsids on the membrane following the particle gel assay and hybridized with a HBV-specific riboprobe. (E) HBV DNA replication intermediates were extracted and determined by Southern blot hybridizations.
(§2) Procedures of viral capsids and nucleocapsid-associated DNA analysis: AML12HB10 cells were lysed by addition of 300 μl buffer containing 10 mM Tris-HCl (pH7.6), 100 mM NaCl, 1 mM EDTA and 0.1% NP-40 to each well of 12-well plate. Cell debries were removed by centrifugation at 5000 g for 10 minutes. Ten microliters of the clarified cell lysates were fractionated by electrophoresis through nondenaturing 1% agarose gels and transferred to a nitrocellulose filter by blotting with TNE buffer (10 mM Tris-HCl, pH7.6; 150 mM NaCl and 1 mM EDTA). HBV capsids were detected by probing the membrane with an antibody against HBV core protein (DAKO). […] To detect capsid associated HBV DNA, the membrane were treated with buffer containing 0.5N NaOH and 1.5 M NaCl for 5 minutes and followed by neutralization with buffer containing 1 M TRIS-HCl and 1.5M NaCl for 5 minutes. The viral DNA was detected by hybridization with a α-^32P-UTP (800 Ci/mmol, Perkin Elmer) labeled minus strand specific full-length HBV riboprobe (Xu et al.).

[2] = tested on: encapsidated pgRNA; experiment: Encapsidated pgRNA by Northern blot in AML12HBV10 cells; assay type: cell-based, Hepatitis B virus (HBV); details: 2 days, FIG. 1 panel C
Protocol: as §1
Determination of encapsidated pgRNA: AML12HBV10 cells were lysed by addition of 600 μl of lysis buffer (50 mM Tris-HCl [pH 7.5], 1 mM EDTA, 150 mM NaCl, 1% NP-40) into each well of 12-well plates. The nuclei were removed by centrifugation at 5,000 g for 10 minutes. One-half of the sample was mixed with 6 U of micrococcal nuclease (Pharmacia) and 15 μl of 100 mM CaCl2 and incubated for 15 minutes at 37° C. to digest free nucleic acids. The reaction was stopped with 6 μl of 0.5 M EDTA, and capsids were precipitated by adding 125 μl of 35% polyethylene glycol 8000 in 1.75 M NaCl to the reaction and incubating in ice for 30 minutes, followed by centrifugation at 6,000 g for 10 minutes at 4° C. Pellets were re-suspended in 50 μl of TNE buffer (10 mM Tris-HCl [pH 8], 100 mM NaCl, 1 mM EDTA). pgRNA was extracted by the addition of 1 ml of Trizol reagent. The encapsidated pgRNA were electrophoresed through a 2.2 M formaldehyde-1% agarose gel, transferred to a nylon membrane, and immobilized by UV cross-linking (Stratagene). Hybridization was performed with an alpha-^32P-UTP labeled riboprobe specific for plus strand of HBV genome.

[3] = tested on: capsid-associated HBV DNA; experiment: Capsid-associated HBV DNA and DNA replication intermediates in AML12HBV10 cells; assay type: cell-based, Hepatitis B virus (HBV); details: 2 days, FIG. 1 panels D and E
Protocol: as §1, §2
To analyze the HBV DNA replication intermediates, cells were lysed by adding into each well of the 12-well plates 0.5 ml of lysis buffer containing 10 mM Tris-HCl (pH 8.0), 1 mM EDTA, 1% NP40 and 2% sucrose and incubating at 37° C. for 10 minutes. Cell debris and nuclei were removed by centrifugation and the supernatant was mixed with 130 μl of 35% polyethylene glycol (PEG) 8000 containing 1.5 M NaCl. After 1 hour incubation in ice, viral nucleocapsids were pelleted by centrifugation at 6,000×g for 5 minutes at 4° C., followed by 1 hour digestion at 37° C. in 400 μl of digestion buffer containing 0.5 mg/ml pronase (Calbiochem), 0.5% SDS, 150 mM NaCl, 25 mM Tris-HCl (pH 8.0) and 10 mM EDTA. The digestion mixture was extracted twice with phenol and DNA was precipitated with ethanol, dissolved in TE buffer (10 mM Tris-HCl, pH 8.0; 0.1 mM EDTA). […]

[4] = tested on: HBV replication in AML12HBV10 cells; experiment: Antiviral efficacy in AML12HBV10 cells (HBV DNA dot-blot hybridization); assay type: cell-based, Hepatitis B virus (HBV)
Protocol: The HBV replication inhibitors of the present invention are capable of treating and preventing diseases associated with HBV infection.
The antiviral efficacy of the compounds of the disclosure, as presented in Table 1, were determined in AML12HBV10 cells. AML12HBV10 is an immortalized murine hepatocyte (AML12)-derived stable cell line that supports robust HBV replication in a tetracycline inducible manner (Xu et al.). The cells were seeded into 96 well plates at a density of 2×10^4 cells per well and cultured in DMEM/F12 media with 10% fetal bovine serum in the absence of tetracycline to allow pgRNA transcription and HBV DNA replication. One day after seeding, cells were left untreated or treated with a serial dilution of testing compounds, ranging from 50 μM to 0.39 μM, for 48 hours. Cells were then lysed by adding into each well of 100 μl lysis buffer containing 10 mM Tris-HCl (pH 7.6), 1 mM EDTA, 100 mM NaCl and 1% NP-40 and incubated at 37° C. for 30 minutes. Half amount (50 μl) of cell lysate from each well was combined with equal volume of denaturing solution containing 0.5N NaOH and 1.5M NaCl. After 5 minute incubation, 100 µl of neutralization solution (1M Tris-HCl, pH 7.4, 1.5M NaCl) was added into each well. The denatured cell lysates (totally 200 μl) were applied onto Nylon membrane using 96-well dot-blot manifold (Biorad). HBV DNA in the cell lysates were determined by dot-blot hybridization with alpha-^32P-UTP-labelled riboprobe specific for HBV minus strand DNA. The antiviral efficacy of a compound of the disclosure was expressed as the concentration that reduces the amount of HBV DNA by 50% (EC50).

[5] = tested on: AML12HBV10 cells; experiment: Cytotoxicity in AML12HBV10 cells (MTT assay); assay type: cell-based, murine; details: concentration that reduces viability by 50%, 48 hours, serial dilution 50 μM to 0.39 μM
Protocol: (§3) Determination of cytotoxicity of compounds of the disclosure in AML12HBV10 cells: To determine the cytotoxicity of the compounds, AML12HBV10 cells were seeded into 96-well plates at a density of 2×10^4 cells per well and cultured in DMEM/F12 media with 10% fetal bovine serum in the absence of tetracycline to allow pgRNA transcription and HBV DNA replication. One day after seeding, cells were left untreated or treated with a serial dilution of testing compounds, ranging from 50 μM to 0.39 μM, for 48 hours. The cell viability was measured by a MTT assay, following procedure provided by the manufacturer (Promega). The cytotoxicity of a compound was expressed as the concentration of compound that reduces the viability of the cells by 50% (CC50).

[6] = tested on: HBV replication in HepDES19 cells; experiment: Antiviral activity in HepDES19 cells (core-associated HBV DNA, Southern blot); assay type: cell-based, Hepatitis B virus (HBV); details: concentration that reduces core-associated HBV DNA by 50%; 6 days; serial dilution 10 μM to 0.018 μM
Excerpt: Determination of antiviral activity of compounds of the disclosure, as presented in Table 1, in human hepatoma-derived cell lines: To further confirm the antiviral activity of the compounds of the disclosure against HBV in human hepatocyte-derived cells, HepDES19 cells, a human hepatoma cell line supporting HBV replication in a tetracycline inducible manner (Guo et al., 2007), seeded into 12-well plates at a density of 5×10^5 cells per well and cultured in DMEM/F12 media with 10% fetal bovine serum and 1 μg/ml tetracycline. Two days after seeding, the cells were mock-treated or treated with a serial dilution of compounds of the disclosure, ranging from 10 μM to 0.018 μM, for 6 days in the absence of tetracycline. Upon the completion of treatment, cells were lysed by adding into each well of the 12-well plates 0.5 ml of lysis buffer containing 10 mM Tris-HCl (pH 8.0), 1 mM EDTA, 1% NP40 and 2% sucrose and incubating at 37° C. for 10 minutes. Cell debris and nuclei were removed by centrifugation and the supernatant was mixed with 130 μl of 35% polyethylene glycol (PEG) 8000 containing 1.5 M NaCl. After 1 hour incubation in ice, viral nucleocapsids were pelleted by centrifugation at 6,000×g for 5 min at 4° C., followed by 1 hour digestion at 37° C. in 400 μl of digestion buffer containing 0.5 mg/ml pronase (Calbiochem), 0.5% SDS, 150 mM NaCl, 25 mM Tris-HCl (pH 8.0) and 10 mM EDTA. The digestion mixture was extracted twice with phenol and DNA was precipitated with ethanol, dissolved in TE buffer (10 mM Tris-HCl, pH 8.0; 0.1 mM EDTA). One half of the DNA sample from each well was resolved by electrophoresis into a 1.5% agarose gel. The gel was then subjected to denaturation in a solution containing 0.5 M NaOH and 1.5 M NaCl, followed by neutralization in a buffer containing 1 M Tris-HCl (pH7.4) and 1.5 M NaCl. DNA was then blotted onto Hybond-XL membrane (GE Health care) in 20×SSC buffer. The amounts of cytoplasmic HBV core-associated HBV DNA were determined by Southern blot hybridization and the antiviral efficacy of a compound was expressed as its concentration that reduce the amount of HBV DNA by 50% (EC50) or 90% (EC90).

[7] = Cytotoxicity in AML12HBV10 cells (MTT assay); assay type: cell-based, murine; details: mouse, concentration that reduces viability by 50%, serial dilution 50 μM to 0.39 μM
Protocol: as §3

[8] = tested on: HBV mRNA; experiment: Intracellular viral RNA by Northern blot in AML12HBV10 cells; assay type: cell-based, Hepatitis B virus (HBV); details: 2 days, FIG. 1 panel A
Protocol: as §1
Procedure for analysis of HBV mRNA: Upon the completion of treatment, total cellular RNA was extracted with TRIzol reagents (Invitrogen). Five micrograms of total RNA was resolved in 1.5% agarose gel containing 2.2 M formadelhyde and transferred onto Hybond-XL membrane in 20×SSC buffer. The amounts of HBV mRNA were determined by Northern blot hybridization with an alpha-^32P-UTP labeled riboprobe specific for plus strand of HBV genome.

| Structure (SMILES) | capsid formation [1] | level of encapsidated pgRNA [2] | capsid-associated HBV DNA / DNA synthesis [3] | EC50 ([4]; read-out: AML12HBV10 EC50, concentration that reduces the amount of HBV DNA by 50%, 48 hours, serial dilution 50 μM to 0.39 μM) [µM] | CC50 [5] [µM] | EC50 [6] [µM] | EC50 ([4]; Hepatitis B virus, AML12HBV10, 48 h, read-out: AML12HBV10 EC50, concentration that reduces the amount of HBV DNA by 50%, serial dilution 50 μM to 0.39 μM) [µM] | CC50 at 48 h [7] [µM] | amount of viral mRNA [8] |
| --- | --- | --- | --- | --- | --- | --- | --- | --- | --- |
| O=C(N/C(C(=O)N1CCCCC1)=C(/Cl)c1ccccc1)c1ccccc1 [AT-61, reference compound] | did not affect | dose-dependently reduced | dose-dependently reduced | – | – | – | – | – | – |
| COC(=O)C1=C(C)NC(c2ncc(F)cc2F)=N[C@H]1c1ccc(F)cc1Cl [Bay41-4109, reference compound] | completely abolished | completely abolished | completely abolished | – | – | – | – | – | – |
| O=C(Nc1ccccc1)c1scc2c1OCCO2 [Entry 10] | – | – | – | 4.48 | > 50 | 8.45 | – | – | – |
| O=C(Nc1cccc(Cl)c1)c1cccc2c1OCCO2 [Entry 19] | did not significantly affect | dose-dependently reduced | reduced encapsidated pgRNA and capsid-associated HBV DNA in a dose-dependent manner | – | – | – | < 0.4 | > 50 | did not affect |
